In patent US4737500A, “1-substituted-4-(thiazolyl-2-)-piperazines, -piperidines and -tetrahydropyridines useful as anxiolytic, psychogeriatric, antidepressant and antischizophrenic agents” (priority 1985, dated 1988):

Tests used:
[1] = aggression test: social interactions in male mice in aggression-evoking social encounters; format: in vivo, mouse; settings: 0.3 mg/kg p.o. (acute administration)
Experimental: The compounds of formula I promote social interactions after acute and chronic administration of 0.3 to 10 mg/kg p.o. in male mice in aggression-evoking social encounters [A. K. Dixon, Triangle 21 (1982) 95-105; M. Krsiak, Brit. J. Pharmacol. 55 (1975) 141-150]. […] M. Y. Spiegelstein, A. Levy, Elsevier, Amsterdam (1982) 39-55].

[2] = 8h-sleep-EEG: sleep phases in the sleep/wake cycle in the rat; format: in vivo; settings: 10 mg/kg p.o.; rat 8h-sleep-EEG
Experimental: Further, the compounds of formula I modify the sleep phases in the sleep/wake cycle in the rat after administration of 3 to 30 mg/kg p.o. [H. Kleinlogel, EEG in Drug Research, Ed. H. Hermann, Gustav Fischer Verlag, Stuttgart, New York, 75-88 (1982)]. In the 8h-EEG, the slow wave phase (SWS) is increased, whereas the spindle phase and the paradoxical sleep phase (PS) are reduced. In Hjorth, parameters are the mean EEG amplitude (CA) and the complexity (CCF) increased.

[3] = atypical dozing in the rat-8h-sleep-EEG; format: in vivo; settings: 10 mg/kg p.o.
[4] = molecular target: T1, 5HT-1A-binding sites in the pig cortex (Sus scrofa, UniProt A0A4X1UTF5); assay: 5HT-1A-binding affinity test, binding of 3H-8-hydroxy-2-(di-n-propylamino)-tetraline (3H-PAT)
T1 construct: from tissue; host or cells: pig cortex
T1 sequence (A0A4X1UTF5 1-422): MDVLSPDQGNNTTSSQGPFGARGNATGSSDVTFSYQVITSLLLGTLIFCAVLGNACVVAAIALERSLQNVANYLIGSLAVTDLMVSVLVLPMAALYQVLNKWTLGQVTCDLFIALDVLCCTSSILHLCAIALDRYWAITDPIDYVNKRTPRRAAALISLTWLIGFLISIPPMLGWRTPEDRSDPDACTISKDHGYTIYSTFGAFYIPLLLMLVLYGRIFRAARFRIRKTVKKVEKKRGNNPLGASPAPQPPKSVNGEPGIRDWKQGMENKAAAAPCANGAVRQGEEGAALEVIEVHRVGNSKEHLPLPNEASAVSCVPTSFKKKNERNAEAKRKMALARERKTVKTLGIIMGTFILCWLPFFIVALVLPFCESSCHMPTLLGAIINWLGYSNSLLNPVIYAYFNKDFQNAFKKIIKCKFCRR

[5] = reference antidepressants, A. K. Dixon 1982; cited from earlier work
[6] = reference antischizophrenics; Sayers and Kleinlogel 1974; cited from earlier work
[7] = characteristic for antidepressants; H. Kleinlogel, page 83; cited from earlier work

SMILES: COc1ccc(Cl)cc1C(=O)NCCN1CCN(c2nc(C(C)(C)C)cs2)CC1 [Example 8, 5-Chloro-2-methoxy-N-(2-(4-(4-(1,1-dimethylethyl)-2-thiazolyl)-1-piperazinyl)ethyl)-benzamide]
- promotion of social interactions [1]: promotes social interactions
- complexity (CCF) [2]: increased
- mean EEG amplitude (CA) [2]: increased
- paradoxial sleep phase (PS) [2]: reduces
- slow wave phase (SWS) [2]: increases
- spindle phase [2]: reduces
- atypical dozing [3]: shows atypical dozing
- IC50 [4]: 600 nM

SMILES: CN(C)CCC=C1c2ccccc2CCc2ccccc21 [amitriptyline]
- promotion of social behaviour [5]: promote social behaviour

SMILES: O=C1CC2(CCCC2)CC(=O)N1CCCCN1CCN(c2ncccn2)CC1 [buspirone]
- IC50 [4]: 10 to 400 nM

SMILES: CN1CCN(C2=Nc3cc(Cl)ccc3Nc3ccccc32)CC1 [clozapine]
- atypical dozing characteristic for antischizophrenics [6]: atypical dozing characteristic

SMILES: CNCCCN1c2ccccc2CCc2ccccc21 [desipramine]
- decrease of paradoxical sleep phase [7]: decrease of paradoxical sleep phase

SMILES: CN(C)CCN1C(=O)c2ccccc2N(C)c2ccccc21 [dibenzepine]
- decrease of paradoxical sleep phase [7]: decrease of paradoxical sleep phase

SMILES: O=C(CCCN1CCC(O)(c2ccc(Cl)cc2)CC1)c1ccc(F)cc1 [haloperidol]
- atypical dozing characteristic for antischizophrenics [6]: atypical dozing characteristic

SMILES: CN(C)CCCN1c2ccccc2CCc2ccccc21 [imipramine]
- promotion of social behaviour [5]: promote social behaviour
- decrease of paradoxical sleep phase [7]: decrease of paradoxical sleep phase

SMILES: CN1CCN2c3ccccc3Cc3ccccc3C2C1 (stereo not drawn) [mianserine]
- decrease of paradoxical sleep phase [7]: decrease of paradoxical sleep phase

SMILES: CN1Cc2c(N)cccc2C(c2ccccc2)C1 (stereo not drawn) [nomifensine]
- decrease of paradoxical sleep phase [7]: decrease of paradoxical sleep phase
